The source of these data is patent US11389415B2, “Methods of regulating cannabinoid receptor activity-related disorders and diseases” (The United States of America as represented by the …, priority 2012, dated 2022).

A short description of data set [1]: Effect on central nervous system functions. Type of data set: in vivo. To be noted: as compared to tetrahydrocannabinol. How it is done: Additional studies were performed which further evaluated the effect of MNF on central nervous system functions.
The subject of a further data set is ERK1/2. In words: ERK1/2 phosphorylation (GPR55 downstream signaling) in PANC-1 cells. Type of data set: cell-based, human. How it is done: Western blot analysis. For detection of intracellular signaling proteins, cells were lysed in radioimmunoprecipitation buffer containing EGTA and EDTA (Boston BioProducts, Ashland, Mass.). The lysis buffer contained a protease inhibitor cocktail (Sigma-Aldrich) and phosphatase inhibitor cocktail (Calbiochem, San Diego, Calif.). Equivalent amount of proteins (14 and 54 μg/well for PANC-1 and HepG2 cells, respectively) were separated on 4 to 12% precast gels (Invitrogen, Carlsbad, Calif.) using SDS-polyacrylamide gel electrophoresis under reducing conditions and then electrophoretically transferred onto polyvinylidene fluoride membrane (Invitrogen). Western blots were performed according to standard methods, which involved blocking in 5% non-fat milk and incubated with the antibody of interest, followed by incubation with a secondary antibody conjugated with the enzyme horseradish perodixase. […] The quantification of bands was done by volume densitometry by using ImageJ software. […]
Effect of MNF on O-1602-mediated increase in cell signaling. Serum-starved cells were pretreated in the absence or presence of 1 μM MNF for 10 minutes followed by a 10 minute incubation with 0, 2.5 and 10 μM O-1602 or 10% FBS, after which the levels of total ERK2 and phosphorylated forms of ERK1/2 (pErk1/2, Thr202/Tyr204), were determined by Western blotting technique. […]

The next data set deals with PANC-1 cells. Nature of the data set: Scratch wound-healing assay, PANC-1 cells. In kind it is cell-based, human. To be noted: PANC-1, 1 μM. How it is done: Scratch assays. These assays were carried out essentially as described previously (Fiori et al., Endocrinology 150: 2551-2560, 2009). In brief, cells were seeded in 12-well nontreated polystyrene cell culture plates with flat bottom (Greiner Bio-One, Monroe, N.C.). Once the cells became confluent, a scratch wound was made with a pipette tip and pictured immediately (time 0). […] Cell migration was examined at 12, 24, 36, 48 hours and 12, 18, 24, 48 hours after scratch for the HepG2 and PANC-1 cells, respectively. Images of the same field were taken every 3 hours to determine the rate of cell migration. Images were captured on an Axiovert 200 inverted microscope (Carl Zeiss, Thornwood, N.Y.) mounted with an AxioCam HRc digital camera (Carl Zeiss) and the measurement of scratch area was performed with ImageJ 1.46s software (National Institutes of Health, Bethesda, Md.). Each study was performed in duplicate dishes and repeated at least twice.

Another data set deals with GPR55 (Homo sapiens, UniProt Q9Y2T6). In words: Cellular uptake of TocriFluor T1117 in HepG2 cells. Type of data set: cell-based. Also noted: host or cells: HepG2 hepatocarcinoma cells.
Chain of GPR55 (Q9Y2T6 whole entry): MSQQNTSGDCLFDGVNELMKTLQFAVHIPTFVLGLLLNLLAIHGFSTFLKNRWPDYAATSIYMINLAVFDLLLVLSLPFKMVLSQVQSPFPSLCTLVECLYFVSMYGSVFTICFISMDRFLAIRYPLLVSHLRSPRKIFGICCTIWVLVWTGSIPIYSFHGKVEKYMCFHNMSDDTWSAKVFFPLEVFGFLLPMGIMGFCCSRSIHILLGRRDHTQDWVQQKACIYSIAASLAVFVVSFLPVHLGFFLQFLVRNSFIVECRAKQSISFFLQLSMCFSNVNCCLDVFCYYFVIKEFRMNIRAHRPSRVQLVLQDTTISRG

For `COc1ccc(C[C@@H](C)NC[C@H](O)c2cc(O)cc(O)c2)c2ccccc12` [(R,R′)-MNF, (R,R′)-4′-methoxy-1-naphthylfenoterol], the “effects on the central nervous system” value in data set [1] is “not have any significant negative effects on the central nervous system”. The “effect on O-1602-mediated ERK phosphorylation” value in the data set on ERK1/2 (PANC-1, 1 μM pretreatment 10 minutes) is on record as “displayed exquisite sensitivity to MNF with regard to O-1602-mediated ERK phosphorylation”. The “effect on serum-induced ERK phosphorylation” value with ERK1/2 (PANC-1, 1 μM pretreatment, 10% FBS) is recorded as “potently inhibited serum-induced ERK phosphorylation in both cell lines”. Further, the “cell motility, compound alone” value in the data set with PANC-1 cells is recorded as “did not alter the constitutive rate of gap filling”. Further, in the data set on PANC-1 cells (AM251 1 μM), the “effect on AM251-induced motility” value is recorded as “produced significant decrease in AM251-induced motility of PANC-1 cells”. The “effect on wound closure evoked by O-1602” value in the data set on PANC-1 cells (O-1602 1 μM) is listed as “inhibit the wound closure evoked by O-1602 in PANC-1 cells”. Besides, the “reduction in T1117 incorporation” value at GPR55 (HepG2, MNF alone (1 μM), 10 nM T1117) is given as ~70%. The “reduction in T1117 incorporation as compared to vehicle-treated cells” value on GPR55 (HepG2, MNF with AM251 added either before or after the 30-minutes MNF treatment) is ~6.8 fold. Further, the “T1117 uptake” value on GPR55 (HepG2, MNF 1 μM or AM251 10 μM for 1 hour, then T1117 0.1 μM) is on record as “dramatically reduced”.
